In data set [1] the test system is hepatic carcinoma 97H cells. Briefly: MTT antiproliferative assay, 97H cells. Conditions: read-out: IC50 of Against 97H cells. The format is cell-based, human. For orientation: Tetrazolium dyes change colour on reduction, which living cells bring about.
Text: (§1) The cell lines, 97H (human liver cancer cell), Pc9 (human non-small cell lung cancer), HELA (human epithelial cervical cancer cell line), SJSA1 (human osteosarcoma cells), LO2 (human normal liver cells), and HLF (human embryonic lung fibroblast), used in this study were purchased from the Guangzhou ginny ou Biotechnology Co. Ltd. (Guangzhou, China). Cell lines were cultivated in Dulbecco’s Modified Eagle Medium (DMEM) containing 10% (v/v) heat-inactivated fetal bovine serum (FBS), 100 units/mL penicillin, and 100 μg/mL streptomycin.
(§2) For the cytotoxicity assay, the cells grown in the logarithmic phase were seeded into 96-well plates (5 × 10^3 cells/well) for 24 h, and then exposed to different concentrations of the test compounds for 48 h. After the attached cells had been incubated with 5 mg/mL MTT (Sigma, St. Louis, MO, USA) for another 4 h, the suspension was discarded and subsequently the dark blue crystals (formazan) were solubilized in dimethyl sulfoxide (DMSO). Then, the absorbance was measured at 570 nm using a multifunction microplate reader (Molecular Devices, Flex Station 3) (Thermo Fisher Scientific, San Jose, CA, USA), and each experiment was performed at least in triplicate.
Data set [2] deals with Pc9 (human non-small cell lung cancer cells). In words: MTT antiproliferative assay, Pc9 cells. Format: cell-based. To be noted: PC-9, 48 h, read-out: IC50 Pc9.
Text: as §1, §2
Data set [3] concerns Hela (human epithelial cervical cancer cells). Briefly: MTT antiproliferative assay, Hela cells. Format: cell-based. To be noted: HeLa, 48 h, read-out: IC50 Hela.
Text: as §1, §2
Data set [4] relates to SJSA1 (human osteosarcoma cells). In words: MTT antiproliferative assay, SJSA1 cells. Format: cell-based. Conditions: SJSA-1, 48 h, read-out: IC50 SJSA1.
Text: as §1, §2
Data set [5] deals with LO2 (human normal liver cells). Briefly: MTT assay, LO2 normal cells. Format: cell-based. To be noted: 48 h, read-out: IC50 LO2.
Text: as §1, §2
Data set [6] deals with HLF (human embryonic lung fibroblast cells). Briefly: MTT assay, HLF normal cells. Format: cell-based. Conditions: 48 h, read-out: IC50 HLF.
Text: as §1, §2
[7] abbreviates: Homo sapiens, 97H cells, MTT, 48 h.

Where two headings read alike, the source gives them in different places.

The IC50 is the point on the concentration scale where inhibition reaches its midpoint. Regarding `C[C@H](c1cccc(-c2ncc(OCC3CCN(C)CC3)cn2)c1)n1cc(-c2cccc(C#N)c2)cnc1=O` [(R)-31e], the IC50 in data set [1] (setting [7]) was 18 ± 6 nM.

By melting point is commonly meant the temperature of the solid-liquid transition. Consider `CC(c1cccc(-c2ncc(OCCCN(C)C)cn2)c1)n1cc(-c2cccc(C#N)c2)cnc1=O` (stereo not shown) [Compound 31c, 5-(3-cyanophenyl)-1-(1-(3-(5-(3-(dimethylamino)propoxy)pyrimidin-2-yl)phenyl)ethyl)pyrimidin-2(1H)-one], for which the melting point was 68.3 to 69.9 °C. Moreover, the IC50 in data set [1] (setting [7]) was 216 ± 87 nM.

`CN(C)CCCSc1cnc(-c2cccc(Cn3cc(-c4cccc(C#N)c4)ncc3=O)c2)nc1` [Compound 11a, 5-(3-cyanophenyl)-1-(3-(5-((3-(dimethylamino)propyl)thio)pyrimidin-2-yl)benzyl)pyrazin-2(1H)-one] displayed a melting point of 106.3 to 107.9 °C. For the same compound, in data set [1] (97H cells, MTT, 48 h), the IC50 was determined as 9810 ± 790 nM. In data set [1] (setting [7]), the IC50 was determined as 9800 nM.

As to `CC(c1cccc(-c2ncc(SCCCN(C)C)cn2)c1)n1cc(-c2cccc(C#N)c2)cc(F)c1=O` (stereo not shown) [Compound 39, 5-(3-cyanophenyl)-1-(1-(3-(5-((3-(dimethylamino)propyl)thio)pyrimidin-2-yl)phenyl)ethyl)-3-fluoropyridin-2(1H)-one], the IC50 in data set [1] (setting [7]) was 206 ± 13 nM.

For the compound `CN(C)CCCSc1cnc(-c2cccc(Cn3cc(-c4cncc(F)c4)cc(F)c3=O)c2)nc1` [Compound 36b, 1-(3-(5-((3-(dimethylamino)propyl)thio)pyrimidin-2-yl)benzyl)-5,5′-difluoro-[3,3′-bipyridin]-6(1H)-one], the melting point is 128.3 to 129.9 °C. Moreover, in data set [1] (setting [7]), the IC50 is 3810 ± 45 nM.

`CN(C)CCCSc1cnc(-c2cccc(Cn3cc(-c4cccc(C#N)c4)cc(F)c3=O)c2)nc1` [Compound 36a, 5-(3-cyanophenyl)-1-(3-(5-((3-(dimethylamino)propyl)thio)pyrimidin-2-yl)benzyl)-3-fluoropyridin-2(1H)-one] registered a melting point of 116.3 to 117.9 °C. For the same compound, in data set [1] (setting [7]), the IC50 was found to be 149 ± 35 nM.

For the compound `CN(C)CCCSc1cnc(-c2cccc(Cn3cc(-c4cncnc4)cc(F)c3=O)c2)nc1` [Compound 36c, 1-(3-(5-((3-(dimethylamino)propyl)thio)pyrimidin-2-yl)benzyl)-3-fluoro-5-(pyrimidin-5-yl)pyridin-2(1H)-one], the IC50 in data set [1] (setting [7]) is 671 ± 56 nM.

`CN1CCC(COc2cnc(-c3cccc(Cn4cc(-c5cccc(C#N)c5)cnc4=O)c3)nc2)CC1` [Compound 25, 5-(3-cyanophenyl)-1-(3-(5-((1-methylpiperidin-4-yl)methoxy)pyrimidin-2-yl)benzyl)pyrimidin-2(1H)-one]: the melting point is 116.7 to 118.2 °C. Also, the IC50 in data set [1] (97H cells, MTT, 48 h) worked out at 361 ± 12 nM. In addition, the IC50 in data set [1] (setting [7]) is 360 to 550 nM.

Turning to `CC(c1cccc(-c2ncc(OCCN3CCOCC3)cn2)c1)n1cc(-c2cccc(C#N)c2)cnc1=O` (stereo not shown) [Compound 31f, 5-(3-cyanophenyl)-1-(1-(3-(5-(2-morpholinoethoxy)pyrimidin-2-yl)phenyl)ethyl)pyrimidin-2(1H)-one], the IC50 in data set [1] (setting [7]) came to 248 ± 34 nM.

For the compound `CN1CCC(COc2cnc(-c3cccc(Cn4nc(-c5cccc(C#N)c5)ccc4=O)c3)nc2)CC1` [Tepotinib, reference compound], the IC50 in data set [1] (Homo sapiens) worked out at 13 ± 8 nM; in data set [2], 8105 ± 12 nM; in data set [3] it was 11200 ± 320 nM; in data set [4] it was 12200 ± 350 nM; in data set [5], 10300 ± 460 nM; in data set [6] it was 9440 ± 150 nM.

In the case of `CC(c1cccc(-c2ncc(SCCN(C)C)cn2)c1)n1cc(-c2cccc(C#N)c2)cnc1=O` (stereo not shown) [Compound 31a, 5-(3-cyanophenyl)-1-(1-(3-(5-((2-(dimethylamino)ethyl)thio)pyrimidin-2-yl)phenyl)ethyl)pyrimidin-2(1H)-one], the IC50 in data set [1] (setting [7]) was 186 ± 7 nM.

Regarding `C[C@@H](c1cccc(-c2ncc(OCC3CCN(C)CC3)cn2)c1)n1cc(-c2cccc(C#N)c2)cnc1=O` [(S)-31e], the IC50 in data set [1] (setting [7]) was 1830 ± 26 nM.

Regarding `CC(c1cccc(-c2ncc(OCC3CCN(C)CC3)cn2)c1)n1cc(-c2cc(F)cc(F)c2)cnc1=O` (stereo not shown) [Compound 31g, 5-(3,5-difluorophenyl)-1-(1-(3-(5-((1-methylpiperidin-4-yl)methoxy)pyrimidin-2-yl)phenyl)ethyl)pyrimidin-2(1H)-one], the melting point was 86.9 to 88.6 °C. For the same compound, the IC50 in data set [1] (setting [7]) was determined as 332 ± 44 nM.

On to `CN(C)CCCOc1cnc(-c2cccc(Cn3cc(-c4cccc(C#N)c4)cnc3=O)c2)nc1` [Compound 22, 5-(3-cyanophenyl)-1-(3-(5-(3-(dimethylamino)propoxy)pyrimidin-2-yl)benzyl)pyrimidin-2(1H)-one], for which the IC50 in data set [1] (setting [7]) was 559 ± 18 nM.

Turning to `CN(C)CCCSc1cnc(-c2cccc(Cn3cc(-c4cc(F)cc(F)c4)ncc3=O)c2)nc1` [Compound 11b, 5-(3,5-difluorophenyl)-1-(3-(5-((3-(dimethylamino)propyl)thio)pyrimidin-2-yl)benzyl)pyrazin-2(1H)-one], the melting point lay within 143.7 to 145.2 °C. Further, the IC50 in data set [1] (setting [7]) turned out to be 9100 ± 670 nM.

For the compound `CC(c1cccc(-c2ncc(SCCCN(C)C)cn2)c1)n1cc(-c2cccc(C#N)c2)cnc1=O` (stereo not shown) [Compound 31b, 5-(3-cyanophenyl)-1-(1-(3-(5-((3-(dimethylamino)propyl)thio)pyrimidin-2-yl)phenyl)ethyl)pyrimidin-2(1H)-one], the IC50 in data set [1] (setting [7]) turned out to be 149 ± 12 nM.

Regarding `CN(C)CCCSc1cnc(-c2cccc(Cn3cc(-c4cccc(C#N)c4)cnc3=O)c2)nc1` [Compound 18, 5-(3-cyanophenyl)-1-(3-(5-((3-(dimethylamino)propyl)thio)pyrimidin-2-yl)benzyl)pyrimidin-2(1H)-one], the IC50 in data set [1] (97H cells, MTT, 48 h) is 443 ± 4 nM; in data set [1] (setting [7]), 360 to 550 nM.

In turn, `CC(c1cccc(-c2ncc(OCCN(C)C)cn2)c1)n1cc(-c2cccc(C#N)c2)cnc1=O` (stereo not shown) [Compound 31d, 5-(3-cyanophenyl)-1-(1-(3-(5-(2-(dimethylamino)ethoxy)pyrimidin-2-yl)phenyl)ethyl)pyrimidin-2(1H)-one] returned a melting point of 53.3 to 55 °C. Besides, the IC50 in data set [1] (setting [7]) came to 196 ± 56 nM.

Values taken from PMC6470795 (Molecules, 2019).
